Reference: patent US20200071316A1, “ACTIVATORS OF THE RETINOIC ACID INDUCIBLE GENE "RIG-I" PATHWAY AND METHODS OF USE THEREOF” (Kineta Immuno-Oncology LLC, priority 2018, published 2020)
Marks after values point to notes of the source that are not given here.

What was measured:
[1] = tested on: IRF3 signaling pathway (IRF-inducible ISG54 promotor) in THP1-Lucia ISG cells; assay: THP1-Lucia ISG reporter assay: induction of IRF3-dependent luciferase activity; type: cell-based; conditions: Homo sapiens, PMA-differentiated cells, 18 h after stimulation, read-out: THP1 ISG: fold increase of IRF3-dependent luciferase activity over background; for fold induction at 10 µM: 10 μM compound; for fold induction at 5 µM: 5 μM compound (**)
Outline: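 PMA-differentiated (100 ng/ml) reporter cells, parental and IRF3−/−, stimulated with compounds at 5–20 μM (mostly 10 μM). Secreted luciferase measured 18 h later. Scored as fold increase over untreated background in bands from "−" (<2.4-fold) to "+++++" (≥40-fold).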

[2] = tested on: THP1-Lucia ISG IRF3 −/− cells; assay: IRF3-deficient THP1-Lucia ISG IRF3 −/− reporter assay (counter-screen); type: cell-based; conditions: Homo sapiens, 18 h after stimulation, read-out: THP1 ISG IRF3 −/−: fold increase of luciferase activity over background; for fold induction at 10 µM: 10 μM compound; for fold induction at 5 µM: 5 μM compound (**)
Outline: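 PMA-differentiated (100 ng/ml) reporter cells carrying ISRE/ISG54 minimal promoter-driven secreted luciferase were stimulated with compounds at 5–20 μM (mostly 10 μM). Luciferase measured 18 h later and expressed as fold increase over untreated background, binned from "−" (<2.4-fold) to "+++++" (≥40-fold).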

[3] = tested on: CXCL10 secretion by CT26 cells; assay: RIG-I dependent CXCL10 secretion by CT26 colon carcinoma cells (ELISA); type: cell-based, murine; conditions: 24 h
Outline: (§1)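 Murine CT26 colon carcinoma cells, and CRISPR-generated RIG-I knockout CT26 cells, were seeded at 1×10^4 cells/well and grown 24 h at 37 °C, 5% CO2, then treated with compounds at 5 to 20 μM. CXCL10 in supernatants was measured by ELISA 24 h after stimulation.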

[4] = tested on: RIG-I deficient CT26 RIG-1−/− cells; assay: CXCL10 secretion in RIG-I deficient CT26 RIG-1−/− cells (ELISA); type: cell-based, murine; conditions: 24 h
Outline: as §1

Row | Structure (SMILES) | fold induction at 10 µM [1] | fold induction at 10 µM [2] | CXCL10 secretion by CT26 cells ([3]; 10 μM compound) | CXCL10 secretion by CT26 RIG-I −/− cells ([4]; 10 μM compound) | fold induction at 5 µM [1] | fold induction at 5 µM [2] | CXCL10 secretion by CT26 cells ([3]; 5 μM compound (**)) | CXCL10 secretion by CT26 RIG-I −/− cells ([4]; 5 μM compound (**))
1 | O=C(Nc1nc2ccc(S(=O)(=O)N3CCOCC3)cc2s1)c1ccc2ccccc2c1 [Example 3, N-[6-(morpholine-4-sulfonyl)-1,3-benzothiazol-2-yl]naphthalene-2-carboxamide] | 10 to 19 | < 2.4 | +++ (“+++” indicates 400-799 pg/mL) | − (“−” indicates less than 100 pg/mL) |  |  |  | 
2 | O=C(Nc1nc2ccc(S(=O)(=O)N3CCCC3)cc2s1)c1cc2ccccc2cc1OCCCCN1CCOCC1 [Example 31, 3-[4-(morpholin-4-yl)butoxy]-N-[6-(pyrrolidine-1-sulfonyl)-1,3-benzothiazol-2-yl]naphthalene-2-carboxamide] | 10 to 19 | < 2.4 | +++++ (“+++++” indicates greater than or equal to 1600 pg/ml) | − (“−” indicates less than 100 pg/mL) |  |  |  | 
3 | O=C(Nc1nc2ccc(S(=O)(=O)N3CCCC3)cc2s1)c1cc2ccsc2cc1OCCCCN1CCOCC1 [Example 42, 6-[4-(morpholin-4-yl)butoxy]-N-[6-(pyrrolidine-1-sulfonyl)-1,3-benzothiazol-2-yl]-1-benzothiophene-5-carboxamide] | 5 to 9.9 | < 2.4 | ++++ (“++++” indicates 800 to 1599 pg/mL) | − (“−” indicates less than 100 pg/mL) |  |  |  | 
4 | O=C(Nc1nc2ccc(NC(=O)C3CCCCC3)cc2s1)c1cc2ccccc2cc1OCCCCN1CCOCC1 [Example 22, N-(6-cyclohexaneamido-1,3-benzothiazol-2-yl)-3-[4-(morpholin-4-yl)butoxy]naphthalene-2-carboxamide] |  |  |  |  | 2.4 to 4.9 | < 2.4 | +** (“+” indicates 100-199 pg/mL) | −** (“−” indicates less than 100 pg/mL)
5 | Cn1ccc2cc(OCCN3CCOCC3)c(C(=O)Nc3nc4ccc(S(=O)(=O)N5CCCC5)cc4s3)cc21 [Example 67, 1-methyl-5-[2-(morpholin-4-yl)ethoxy]-N-[6-(pyrrolidine-1-sulfonyl)-1,3-benzothiazol-2-yl]-1H-indole-6-carboxamide] | 20 to 39 | < 2.4 | ++++ (“++++” indicates 800 to 1599 pg/mL) | − (“−” indicates less than 100 pg/mL) |  |  |  | 
6 | O=C(Nc1nc2ccc(OCC(F)(F)F)cc2s1)c1cc2ccccc2cc1OCCN1CCOCC1 [Example 54, 3-[2-(morpholin-4-yl)ethoxy]-N-[6-(2,2,2-trifluoroethoxy)-1,3-benzothiazol-2-yl]naphthalene-2-carboxamide] | 2.4 to 4.9 | < 2.4 | − (“−” indicates less than 100 pg/mL) | − (“−” indicates less than 100 pg/mL) |  |  |  | 
7 | COC(=O)c1ccc2nc(NC(=O)c3cc4ccccc4cc3OCCCCN3CCOCC3)sc2c1 [Example 66, methyl 2-{3-[4-(morpholin-4-yl)butoxy]naphthalene-2-amido}-1,3-benzothiazole-6-carboxylate] |  |  |  |  | 5 to 9.9 | < 2.4 | ++** (“++” indicates 200-399 pg/mL) | −** (“−” indicates less than 100 pg/mL)
8 | O=C(Nc1nc2ccc(S(=O)(=O)N3CCCC3)cc2s1)c1cc2ccsc2cc1OCCN1CCOCC1 [Example 39, 6-[2-(morpholin-4-yl)ethoxy]-N-[6-(pyrrolidine-1-sulfonyl)-1,3-benzothiazol-2-yl]-1-benzothiophene-5-carboxamide] | 20 to 39 | < 2.4 | ++ (“++” indicates 200-399 pg/mL) | − (“−” indicates less than 100 pg/mL) |  |  |  | 
